Source: the supplement of paper PMC11451515

Legend:
SEM cells [1] = experiment: cell viability relative to DMSO control; higher = less cytotoxic; conditions: 48 h
Procedure, shortened: (§1)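 NOMO1 or SEM (500 cells/well) or P12-Ichikawa (1000 cells/well) leukemia cells were adapted for at least four passages in each medium. They were seeded in 1536-well plates (5 μl) and pin-dosed with library compounds in DMSO over an 11-point threefold series, 47 μM to 0.79 nM. CellTiter-Glo One luminescence was read after 48 h at 37°C. Viability is the per-plate percentage relative to DMSO wells, with cell-free wells as background.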

NOMO1 [2] = experiment: AUC of viability dose-response curve (% viability x log10 dose units); higher = less sensitive; conditions: 48 h
Procedure, shortened: (§2)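 Leukemia cells adapted to each medium were seeded at 500 or 1000 cells/well in 1536-well plates and dosed with library compounds in DMSO at 11 threefold doses from 47 μM to 0.79 nM for 48 h at 37°C. CellTiter-Glo One luminescence was normalised per plate to DMSO and cell-free wells, then fitted with a four-parameter log-logistic model over log10 doses. Area under the curve was taken from this fit by the trapezoidal rule, with curves above full viability scaled and curves failing quality control removed.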

P12-Ichikawa [3] = experiment: as above; conditions: 48 h
Procedure, shortened: as §2

SEM cells [4] = experiment: as above; conditions: 48 h
Procedure, shortened: as §2

P12-Ichikawa [5] = experiment: cell viability relative to DMSO control; higher = less cytotoxic; conditions: 48 h
Procedure, shortened: as §1

NOMO1 [6] = experiment: as above; conditions: HPLM + 10% dialyzed FBS, 48 h
Procedure, shortened: as §1

CN1CC[C@H]([C@@H](O)C1)C2=C(O)C=C(O)C3=C2O\C(=C/C3=O)C4=CC=CC=C4Cl
SEM cells [1], HPLM + 10% dialyzed FBS
Conditions	cell viability [%]
0.000781 µM	104
0.00234 µM	121
0.00702 µM	134
0.0211 µM	132
0.0632 µM	128
0.19 µM	131
0.569 µM	23
1.71 µM	10.1
5.12 µM	6.69
15.4 µM	5.22
46.1 µM	6.07

AUC of viability dose-response curve
Conditions	NOMO1 [2]	P12-Ichikawa [3]	SEM cells [4]
HPLM + 10% dialyzed FBS	265	306	281
RPMI 5 mM glucose + 10% FBS	288	301	276
RPMI 5 mM glucose + 10% dialyzed FBS	285	300	282

COc1ccc(/C=C\c2cc(OC)c(OC)c(OC)c2)cc1NC(=O)[C@H](N)CO
cell viability [%], RPMI 5 mM glucose + 10% FBS
Conditions	P12-Ichikawa [5]	SEM cells [1]
0.000781 µM	121	104
0.00234 µM	144	118
0.00702 µM	125	115
0.0211 µM	50.9	58.1
0.0632 µM	24.6	15
0.19 µM	13.8	11.1
0.569 µM	9.28	14.7
1.71 µM	7.31	7.29
5.12 µM	8.08	6.77
15.4 µM	4.52	3.55
46.1 µM	4.09	3.19

AUC of viability dose-response curve
Conditions	NOMO1 [2]	P12-Ichikawa [3]	SEM cells [4]
HPLM + 10% dialyzed FBS	209	179	190
RPMI 5 mM glucose + 10% FBS	188	157	167
RPMI 5 mM glucose + 10% dialyzed FBS	206	202	186

N=C(N)NC(=N)NCCc1ccccc1
AUC of viability dose-response curve
Conditions	NOMO1 [2]	P12-Ichikawa [3]	SEM cells [4]
HPLM + 10% dialyzed FBS	464	450	465
RPMI 5 mM glucose + 10% FBS	456	440	461
RPMI 5 mM glucose + 10% dialyzed FBS	455	438	444

N#C/C(=C(/N)Sc1ccc(N)cc1)c1ccccc1C(F)(F)F
cell viability [%], HPLM + 10% dialyzed FBS
Conditions	P12-Ichikawa [5]	SEM cells [1]
0.000781 µM	123	91.1
0.00234 µM	121	141
0.00702 µM	125	124
0.0211 µM	125	129
0.0632 µM	133	129
0.19 µM	118	124
0.569 µM	120	126
1.71 µM	103	110
5.12 µM	94.4	85.4
15.4 µM	94.1	82.3
46.1 µM	83.9	64.6

AUC of viability dose-response curve
Conditions	NOMO1 [2]	P12-Ichikawa [3]	SEM cells [4]
HPLM + 10% dialyzed FBS	354	433	428
RPMI 5 mM glucose + 10% FBS	386	417	424
RPMI 5 mM glucose + 10% dialyzed FBS	366	436	404

C[S+](=O)([O-])c1ccc([C@@H](O)[C@@H](CO)NC(=O)C(Cl)Cl)cc1
AUC of viability dose-response curve
Conditions	NOMO1 [2]	P12-Ichikawa [3]	SEM cells [4]
HPLM + 10% dialyzed FBS	445	456	432
RPMI 5 mM glucose + 10% FBS	476	431	421
RPMI 5 mM glucose + 10% dialyzed FBS	455	420	450

CO[C@H]1/C=C/O[C@@]2(C)Oc3c(C)c(O)c4c(c3C2=O)C2=NC3(CCN(CC(C)C)CC3)NC2=C(NC(=O)/C(C)=C/C=C/[C@H](C)[C@H](O)[C@@H](C)[C@@H](O)[C@@H](C)[C@H](OC(C)=O)[C@@H]1C)C4=O
Conditions	AUC of viability dose-response curve	cell viability [%]
NOMO1 [2], HPLM + 10% dialyzed FBS	471	–
NOMO1 [2], RPMI 5 mM glucose + 10% FBS	476	–
NOMO1 [2], RPMI 5 mM glucose + 10% dialyzed FBS	466	–
NOMO1 [6], 0.000781 µM	–	117
NOMO1 [6], 0.00234 µM	–	111
NOMO1 [6], 0.00702 µM	–	146
NOMO1 [6], 0.0211 µM	–	135
NOMO1 [6], 0.0632 µM	–	132
NOMO1 [6], 0.19 µM	–	127
NOMO1 [6], 0.569 µM	–	138
NOMO1 [6], 1.71 µM	–	137
NOMO1 [6], 5.12 µM	–	127
NOMO1 [6], 15.4 µM	–	113
NOMO1 [6], 46.1 µM	–	117
P12-Ichikawa [3], HPLM + 10% dialyzed FBS	469	–
P12-Ichikawa [3], RPMI 5 mM glucose + 10% FBS	466	–
P12-Ichikawa [3], RPMI 5 mM glucose + 10% dialyzed FBS	471	–

cell viability [%], SEM cells [1]
Conditions	HPLM + 10% dialyzed FBS	RPMI 5 mM glucose + 10% FBS	RPMI 5 mM glucose + 10% dialyzed FBS
0.000781 µM	92.6	116	110
0.00234 µM	80.4	114	100
0.00702 µM	103	133	118
0.0211 µM	109	133	117
0.0632 µM	122	153	135
0.19 µM	118	144	122
0.569 µM	123	135	130
1.71 µM	17.8	10.7	26.7
5.12 µM	122	152	123
15.4 µM	108	125	93
46.1 µM	105	113	99.1

C=C(c1ccc(C(=O)O)cc1)c1cc2c(cc1C)C(C)(C)CCC2(C)C
Conditions	cell viability [%]
P12-Ichikawa [5], HPLM + 10% dialyzed FBS, 0.000781 µM	113
P12-Ichikawa [5], HPLM + 10% dialyzed FBS, 0.00234 µM	119
P12-Ichikawa [5], HPLM + 10% dialyzed FBS, 0.00702 µM	121
P12-Ichikawa [5], HPLM + 10% dialyzed FBS, 0.0211 µM	121
P12-Ichikawa [5], HPLM + 10% dialyzed FBS, 0.0632 µM	126
P12-Ichikawa [5], HPLM + 10% dialyzed FBS, 0.19 µM	129
P12-Ichikawa [5], HPLM + 10% dialyzed FBS, 0.569 µM	125
P12-Ichikawa [5], HPLM + 10% dialyzed FBS, 1.71 µM	120
P12-Ichikawa [5], HPLM + 10% dialyzed FBS, 5.12 µM	124
P12-Ichikawa [5], HPLM + 10% dialyzed FBS, 15.4 µM	117
P12-Ichikawa [5], HPLM + 10% dialyzed FBS, 46.1 µM	114
SEM cells [1], RPMI 5 mM glucose + 10% dialyzed FBS, 0.000781 µM	95
SEM cells [1], RPMI 5 mM glucose + 10% dialyzed FBS, 0.00234 µM	110
SEM cells [1], RPMI 5 mM glucose + 10% dialyzed FBS, 0.00702 µM	134
SEM cells [1], RPMI 5 mM glucose + 10% dialyzed FBS, 0.0211 µM	116
SEM cells [1], RPMI 5 mM glucose + 10% dialyzed FBS, 0.0632 µM	116
SEM cells [1], RPMI 5 mM glucose + 10% dialyzed FBS, 0.19 µM	125
SEM cells [1], RPMI 5 mM glucose + 10% dialyzed FBS, 0.569 µM	120
SEM cells [1], RPMI 5 mM glucose + 10% dialyzed FBS, 1.71 µM	118
SEM cells [1], RPMI 5 mM glucose + 10% dialyzed FBS, 5.12 µM	111
SEM cells [1], RPMI 5 mM glucose + 10% dialyzed FBS, 15.4 µM	99.3
SEM cells [1], RPMI 5 mM glucose + 10% dialyzed FBS, 46.1 µM	83.5

AUC of viability dose-response curve
Conditions	NOMO1 [2]	P12-Ichikawa [3]	SEM cells [4]
HPLM + 10% dialyzed FBS	422	477	465
RPMI 5 mM glucose + 10% FBS	434	470	465
RPMI 5 mM glucose + 10% dialyzed FBS	431	468	461

C[C@@H]1C(=O)O[C@H]2CC34[C@H]5C[C@@H](C(C)(C)C)C36[C@@H](OC(=O)[C@@H]6O)O[C@@]4(C(=O)O5)[C@]21O (stereo partly drawn)
AUC of viability dose-response curve
Conditions	NOMO1 [2]	P12-Ichikawa [3]	SEM cells [4]
HPLM + 10% dialyzed FBS	431	447	465
RPMI 5 mM glucose + 10% FBS	460	462	467
RPMI 5 mM glucose + 10% dialyzed FBS	463	462	456

OC1=CC2=C(C(=C1)O)C(=O)\C(=C(/O2)C3=CC(=C(O)C(=C3)O)O)O
AUC of viability dose-response curve
Conditions	NOMO1 [2]	P12-Ichikawa [3]	SEM cells [4]
HPLM + 10% dialyzed FBS	451	454	462
RPMI 5 mM glucose + 10% FBS	470	471	460
RPMI 5 mM glucose + 10% dialyzed FBS	458	466	470

CC1(COc2ccc3c(c2)ncn3-c2ccc3cccc(N4CCC(N)CC4)c3n2)COC1
cell viability [%], SEM cells [1]
Conditions	HPLM + 10% dialyzed FBS	RPMI 5 mM glucose + 10% FBS	RPMI 5 mM glucose + 10% dialyzed FBS
0.000781 µM	91.2	114	99.8
0.00234 µM	96.7	101	99.7
0.00702 µM	81.3	94	73.6
0.0211 µM	62.7	64.9	59.6
0.0632 µM	38.9	28.8	33.8
0.19 µM	56.3	49.8	51.1
0.569 µM	54.4	49.5	47.4
1.71 µM	44.1	40.5	48.2
5.12 µM	26.4	18.1	20
15.4 µM	28.7	16.4	20.2
46.1 µM	6.33	5.26	6.44

AUC of viability dose-response curve
Conditions	HPLM + 10% dialyzed FBS	RPMI 5 mM glucose + 10% FBS	RPMI 5 mM glucose + 10% dialyzed FBS
P12-Ichikawa [3]	392	403	418
SEM cells [4]	254	216	240
